Reference: PMC11389776, “Positive allosteric modulation of a GPCR ternary complex” (Science Advances, 2024)

Columns and labels:
[1] = target: T1, M2 mAChR (Homo sapiens, UniProt P08172, DEL226-389); assay: [3H]-NMS interaction binding with LY211 and/or G protein at M2 mAChR nanodiscs (full interaction and titration)
T1 construct: made in house; host or cells: Sf9 insect cells (receptor, baculovirus); Trichoplusia ni Hi5 cells (G protein); E. coli BL21(DE3) (cMSP1D1 scaffold)
T1 sequence (P08172 with tags, fused parts or gaps DEL226-389): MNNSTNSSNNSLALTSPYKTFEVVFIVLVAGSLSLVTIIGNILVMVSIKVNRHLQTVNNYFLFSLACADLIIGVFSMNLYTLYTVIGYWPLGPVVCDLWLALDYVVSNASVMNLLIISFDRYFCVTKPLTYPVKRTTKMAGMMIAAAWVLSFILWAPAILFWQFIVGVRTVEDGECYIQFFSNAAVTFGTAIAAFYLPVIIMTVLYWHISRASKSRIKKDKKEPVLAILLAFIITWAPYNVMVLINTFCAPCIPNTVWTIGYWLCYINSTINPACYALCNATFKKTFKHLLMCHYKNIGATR
Procedure: (§1) The affinity of [^3H]-NMS for M2 mAChR in nanodiscs, as well as the concentration of receptor in nanodiscs, was determined through saturation binding with [^3H]-NMS. M2 nanodiscs were incubated with a range of concentrations of [^3H] […] Membrane equilibrium binding experiments were performed with 15 μg of membrane expressing the WT hM2 mAChR in a 300-μl reaction volume of binding buffer with or without 100 μM Gpp[NH]pp in deep 96-well plates for 6 hours at RT. […] For all radioligand binding experiments, nonspecific binding was defined by 10 μM Atr and the assay was terminated through rapid filtration through Whatman GF/B filter plates using a 96-well harvester (PerkinElmer). Filter plates were dried overnight, and radioactivity was determined by adding 40 μl of MicroScint-O scintillation fluid and counting in a MicroBeta^2 Plate Counter (PerkinElmer Life Sciences).
(§2) All data were analyzed using GraphPad Prism 9 (GraphPad Software, San Diego, CA). […] For competition binding experiments between [^3H]-NMS and a range of concentrations of unlabeled orthosteric agonist at M2 mAChR nanodiscs in the presence of G protein and for competition binding at M2 mAChR membranes, data were fit to a two-site competition binding model or a one-site competition binding model. […] Monoexponential decay and one-phase association equations were fit to the radioligand dissociation and association data at M2 mAChR nanodiscs.

[2] = target: T2, M2ΔICL3 mAChR (Homo sapiens, UniProt P08172, DEL226-389); assay: ERK1/2 phosphorylation assay in M2ΔICL3 mAChR FlpIn CHO cells; assay type: cell-based; details: pERK1/2, M2ΔICL3 mAChR FlpIn CHO cells, normalized to FBS; three-parameter logistic
T2 construct: expressed in transfected cells
T2 sequence (P08172 with tags, fused parts or gaps DEL226-389): T1 sequence (P08172 with tags, fused parts or gaps DEL226-389)
Procedure: (§3) All data were analyzed using GraphPad Prism 9 (GraphPad Software, San Diego, CA). Concentration-response curves were fit with a three-parameter logistic equation to quantify potency (pEC50) and an operational model of agonism to derive an efficacy parameter (log τ) ([69]). […] For competition binding experiments between [^3H]-NMS and a range of concentrations of unlabeled orthosteric agonist at M2 mAChR nanodiscs in the presence of G protein and for competition binding at M2 mAChR membranes, data were fit to a two-site competition binding model or a one-site competition binding model. […] Monoexponential decay and one-phase association equations were fit to the radioligand dissociation and association data at M2 mAChR nanodiscs. Kinetic TRUPATH data were analyzed using a “baseline then rise to steady state with drift” equation ([44]).

[3] = target: T1, M2 mAChR; assay: [3H]-NMS competition binding at M2 mAChR nanodiscs with or without Gi1 protein
Procedure: as §1, §2

[4] = target: T3, M2 mAChR (Homo sapiens, UniProt P08172); assay: Gi1 (TRUPATH) protein activation assay in M2 mAChR FlpIn CHO cells; assay type: cell-based; details: for Log τ: operational efficacy, operational model of agonism, LY211 value is an estimate (saturation not reached)
T3 construct: expressed in transfected cells
T3 sequence (P08172 1-466): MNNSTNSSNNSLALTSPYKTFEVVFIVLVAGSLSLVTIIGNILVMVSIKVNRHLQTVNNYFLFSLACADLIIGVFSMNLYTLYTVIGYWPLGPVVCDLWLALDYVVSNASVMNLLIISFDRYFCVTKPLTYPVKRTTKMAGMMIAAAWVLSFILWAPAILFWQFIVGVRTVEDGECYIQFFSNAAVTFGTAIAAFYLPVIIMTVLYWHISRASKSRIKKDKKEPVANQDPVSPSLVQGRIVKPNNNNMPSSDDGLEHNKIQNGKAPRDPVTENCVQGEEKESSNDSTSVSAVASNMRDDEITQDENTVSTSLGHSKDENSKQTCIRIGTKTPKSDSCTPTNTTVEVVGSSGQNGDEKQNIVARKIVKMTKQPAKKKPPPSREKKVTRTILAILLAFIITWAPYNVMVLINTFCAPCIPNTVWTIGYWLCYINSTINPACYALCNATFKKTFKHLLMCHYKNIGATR
Procedure: Upon 60 to 80% confluence, WT hM2 mAChR expressing FlpIn CHO cells were transfected transiently using polyethylenimine (Sigma-Aldrich) with 10 ng per well of each the G protein TRUPATH biosensors pcDNA5/FRT/TO-Gαi1-RLuc8/pcDNA3.1-β3/pcDNA3.1-Gγ9-GFP2 giving a ratio of 1:1:1 ratio with 30 ng in total. Cells were plated at 30,000 cells per well into 96-well Greiner CELLSTAR white-walled plates (Sigma-Aldrich). Forty-eight hours later, cells were washed with 200 μl of PBS and replaced with 1x Hanks’ balanced salt solution supplemented with 10 mM Hepes. […] The ratio was vehicle corrected using the initial four baseline measurements and then baseline corrected again using the vehicle-treated wells. Concentration-response curves were constructed from the area under the curve (AUC) of the double baseline-corrected kinetic traces and normalized to the highest AUC value in each dataset.
as §2

[5] = target: T3, M2 mAChR; assay: Kinetic Gαi1 (TRUPATH) protein activation assay in M2 mAChR CHO cells; assay type: cell-based; details: for Steady state: final effect level, normalized to ACh
Procedure: Upon 60 to 80% confluence, WT hM2 mAChR expressing FlpIn CHO cells were transfected transiently using polyethylenimine (Sigma-Aldrich) with 10 ng per well of each the G protein TRUPATH biosensors pcDNA5/FRT/TO-Gαi1-RLuc8/pcDNA3.1-β3/pcDNA3.1-Gγ9-GFP2 giving a ratio of 1:1:1 ratio with 30 ng in total. Cells were plated at 30,000 cells per well into 96-well Greiner CELLSTAR white-walled plates (Sigma-Aldrich). Forty-eight hours later, cells were washed with 200 μl of PBS and replaced with 1x Hanks’ balanced salt solution supplemented with 10 mM Hepes. […] Cells were further incubated for 10 min at 25°C before BRET measurements were performed on a PHERAstar FSX plate reader (BMG Labtech) using 410/80-nm and 515/30-nm filters. […] The BRET signal was calculated as the ratio of 515/30-nm emission over 410/80-nm emission. The ratio was vehicle corrected using the initial four baseline measurements and then baseline corrected again using the vehicle-treated wells. Concentration-response curves were constructed from the area under the curve (AUC) of the double baseline-corrected kinetic traces and normalized to the highest AUC value in each dataset.
as §3

[6] = target: T1, M2 mAChR; assay: [3H]-NMS association and dissociation assays at M2 mAChR nanodiscs; assay type: binding
Procedure: The affinity of [^3H]-NMS for M2 mAChR in nanodiscs, as well as the concentration of receptor in nanodiscs, was determined through saturation binding with [^3H]-NMS. M2 nanodiscs were incubated with a range of concentrations of [^3H] NMS in a final volume of 200 μl of binding buffer [20 mM Hepes (pH 7.5), 100 mM NaCl, 10 mM MgCl2, and 0.5% bovine serum albumin] for 6 hours at RT. […] Membrane equilibrium binding experiments were performed with 15 μg of membrane expressing the WT hM2 mAChR in a 300-μl reaction volume of binding buffer with or without 100 μM Gpp[NH]pp in deep 96-well plates for 6 hours at RT. […] For all radioligand binding experiments, nonspecific binding was defined by 10 μM Atr and the assay was terminated through rapid filtration through Whatman GF/B filter plates using a 96-well harvester (PerkinElmer). Filter plates were dried overnight, and radioactivity was determined by adding 40 μl of MicroScint-O scintillation fluid and counting in a MicroBeta^2 Plate Counter (PerkinElmer Life Sciences).
as §3

[7] = target: M2ΔICL3 mAChR (Flag-M2ΔICL3-His) reconstituted into cMSP1D1 nanodiscs (human) (UniProt P08172)
[8] = target: M2ΔICL3 mAChR (Flag-M2ΔICL3-His) reconstituted into cMSP1D1 nanodiscs (human) (UniProt P08172); assay: radioligand binding; Gi1 heterotrimer titrated (R:G ratios plotted as molar concentration) against a KD concentration of [3H]-NMS at M2 mAChR nanodiscs; affinity for the NMS-bound receptor from the allosteric ternary complex model (ATCM); 20 mM Hepes pH 7.5, 100 mM NaCl, 10 mM MgCl2, 0.5% BSA; 6 hours at RT; filtration; details: scale: negative logarithm of the equilibrium dissociation constant
[9] = saturating amount of drug alone
[10] = saturating orthosteric agonist + LY211
[11] = saturating amount of drug alone, baseline then rise to steady state with drift model
[12] = Titration against KD concentration of [3H]-NMS, ATCM

## C[N+](C)(C)CC#CCOC1=NOCC1 [Ipx, iperoxo]
[1]; Full interaction, − G protein heterotrimer, cooperativity between orthosteric agonist and LY211, ATCM
  (LY211) - Log αAgonist: 2.05 ± 0.21 (4)
[2]
  pEC50: 8.23 ± 0.16
[3]; M2 mAChR nanodiscs, shift promoted by Gi1
  increase in affinity between pKi(Low) and pKi(High): 112 fold
[3]; M2 mAChR nanodiscs, without G protein
  increase in agonist affinity in the presence of 10 μM LY211: 112 fold
[3]; Nanodisc, cooperativity between agonist and G protein (Gi1), ATCM
  (G protein) - Log α: 2.33 ± 0.18 (3)
[3]; Nanodisc, two-site competition binding model, 6 hours at RT
  pKi(Low): 7.72 ± 0.06 (11)
[3]; fraction of receptors in high-affinity state, two-site model, R:G 1:0
  FracHi - M2 mAChR nanodiscs - receptor:G protein molar ratio 1:0: 0.12 ± 0.04 (11)
[3]; fraction of receptors in high-affinity state, two-site model, R:G 1:500 (Gi1)
  FracHi - M2 mAChR nanodiscs - receptor:G protein molar ratio 1:500: 0.68 ± 0.06 (3)
[3]; fraction of receptors in high-affinity state, two-site model, R:G 1:1000 (Gi1)
  FracHi - M2 mAChR nanodiscs - receptor:G protein molar ratio 1:1000: 0.76 ± 0.06 (3)
[3]; fraction of receptors in high-affinity state, two-site model, R:G 1:2000 (Gi1)
  FracHi - M2 mAChR nanodiscs - receptor:G protein molar ratio 1:2000: 0.91 ± 0.05 (3)
[4]; Gi1 activation (BRET), M2 mAChR FlpIn CHO cells, three-parameter logistic equation
  pEC50: 9.18 ± 0.22 (7)
[4]
  Log τ: 1.61 ± 0.25 (7)
[5]; [9]
  Steady state: 102 ± 0.95 (3)
[5]; [10]
  Steady state: 114 ± 0.68 (4)
  Initial rate: 586 ± 26.8 (4) BRET units min^−1
[5]; [11]
  Initial rate: 217 ± 6.48 (3) BRET units min^−1

## Cc1c(Cl)c(OCC(=O)N2CCN(C)CC2)nc2sc(C(=O)NC3CC3)c(N)c12 [LY211, LY2119620]
[1]; Full interaction ACh–LY211, + 1:2000 G protein heterotrimer, not different from zero (F test), constrained to zero
  (LY211) - Log αAgonist: 0
[1]; Full interaction with ACh, + 1:2000 G protein heterotrimer, ATCM
  (LY211) - Log α[3H]-NMS: −0.37 ± 0.04 (4)
[1]; [12]
  Log α[3H]-NMS: −0.19 ± 0.08 (3)
[1]; Titration against [3H]-NMS, + 1:2000 G protein heterotrimer, ATCM
  Log α[3H]-NMS: −0.81 ± 0.20 (3)
[1]; titration against [3H]-NMS, with vs without saturating Gi1
  increase in the affinity of LY211 in the presence of G protein: sixfold
[4]
  Log τ: 0.75 ± 0.12 (4)
[5]; [9]
  Steady state: 69.1 ± 4.22 (3)
[5]; [11]
  Initial rate: 198 ± 51.0 (3) BRET units min^−1

## C[N+]1(C)[C@@H]2CC(OC(=O)[C@H](CO)c3ccccc3)C[C@H]1[C@@H]1O[C@@H]12 (stereo partly drawn) [[^3H]-NMS, [^3H]-N-methylscopolamine]
[6]; +10 μM LY211
  B max: 115 ± 13.2 (3)
[6]; +10 μM LY211 + Gi1
  B max: 20.33 ± 4.96 (3)
[6]; [3H]-NMS only, maximal binding at equilibrium, one-phase association model
  B max: 131 ± 4.71 (3)
[6]; [3H]-NMS only, monoexponential decay
  k off: 0.150 ± 0.011 (4) min^−1

## G protein heterotrimer: purified WT G protein heterotrimer (Gαi1β1γ2)
[1]; [12]
  Log α[3H]-NMS: −0.55 ± 0.16 (10)
  pKB: 7.37 ± 0.22 (10)
[1]; Titration against KD concentration of [3H]-NMS, ATCM, listed as Gi1
  Log α[3H]-NMS: −0.55 ± 0.16

## Gq: purified heterotrimeric G protein, Gq α subunit with Gβ1γ2
[3]; 1:2000 molar ratio M2 mAChR:G protein, [3H]-NMS competition binding
  effect of G protein heterotrimer on ACh affinity: could not mediate any change in ACh affinity

## WT G protein heterotrimer Gαi1β1γ2 (from UniProt P63096 1-354; P62873 1-340; P59768 1-71) (complex)
[7]
  FracHi: fraction of receptors in the high-affinity state for ACh, [3H]-NMS competition binding at M2 mAChR nanodiscs, receptor:G protein molar ratio 1:0 to 1:2000 (highest at 1:2000): 1
  FracHi: fraction of receptors in the high-affinity state for Ipx, [3H]-NMS competition binding at M2 mAChR nanodiscs, receptor:G protein molar ratio 1:0 and 1:500 to 1:2000 (highest at 1:2000): 0.91
  FracHi: fraction of receptors in the high-affinity state for Pilo, [3H]-NMS competition binding at M2 mAChR nanodiscs, receptor:G protein molar ratio 1:0 and 1:500 to 1:2000 (highest at 1:2000): 0.73
[8]
  pKB: 7.37
